Measured values: patent US9968603B2, “Systems for sustained intraocular delivery of low solubility compounds from a port delivery system implant” (ForSight Vision4, Inc., priority 2013, dated 2018)
Converted amounts (≈) assume the structure as drawn. Where a name gives a salt, the structure may show the parent alone. Read-outs that look alike come from different tables or passages of the source. One block for each molecule: values may come before it.

Assays:
[1] = Formulation (solubility) screening with cyclodextrins, concentrations achieved; assay type: physicochemical; details: for SBE-β-CD [CAPTISOL] Formulations (CD Excess), concentration: CD excess: Pazopanib 20 (5x), 50 (2.5x), 80 (2.5x), Sunitinib 2.5x, 4x, Axitinib 6x, Linifanib 8x, Motesanib 2x; for Expected Concentration Achieved: achieved vs expected formulation concentration
Experimental: For example, solid therapeutic agents are mixed in an aqueous solution with cyclodextrin, buffering agent, and/or other formulation agents of the current invention. The pH of the resulting mixture is adjusted with a base, for example, NaOH, or an acid, for example, citric acid. The mixture is then filtered, and the resulting filtered solution is used to fill the PDS.
A solubility screening of the therapeutic agent of the invention was carried out during the pre-formulation stage. For example, the solubility of the therapeutic agents in acids, cyclodextrin (CD) (e.g., SBEβCD (CAPTISOL®), HPβCD, HPγCD), hydrophilic stabilizing agents (e.g., PVP), and buffering agents (e.g., citric acid, histidine) were explored. Systematic formulation screening may include determination of CD:therapeutic agent ratio, pH, therapeutic agent concentration, and agents.
For example, in the formulation process with complexing agents such as cyclodextrins, a vial of solid therapeutic agent was mixed with a vial containing a solution of CD, acid, and agents in water. The pH of the resulting mixture was adjusted by NaOH. The mixture was then be filtered, and the resulting filtered solution was used to fill the PDS device or used to determine its stability.

[2] = Formulations with amphiphilic agents and non-aqueous solvents (no complexing agent), concentration dissolved; assay type: physicochemical; details: neat PEG 300
[3] = Viscosity and water content of cyclodextrin formulations; assay type: physicochemical; details: 80 mg/mL Pazopanib
[4] = Aqueous solubility; assay type: physicochemical
[5] = Diffusion coefficient from Release Rate Index and single exponential model, compared with Stokes-Einstein prediction; details: 21 mg/mL Sunitinib, 2.5:1 molar ratio HPβCD
Experimental: The measured diffusion coefficient was compared to the diffusion coefficient predicted (using Stokes-Einstein equation to correct for MW (via volume of diffusing species) and temperature (via temperature dependence of the viscosity of water)) for a molecule of that molecular weight.
The rate was assessed by using the measured Release Rate Index (RRI) and volume for a particular device and using the single exponential diffusion model to determine a measured diffusion coefficient for a particular formulation and device combination. The measured diffusion coefficient was compared to the diffusion coefficient predicted (using Stokes-Einstein equation to correct for MW (via volume of diffusing species) and temperature (via temperature dependence of the viscosity of water)) for a molecule of that molecular weight.

SBE-β-CD [CAPTISOL] Formulations (CD Excess), concentration [1]: 6 mg/mL
Expected Concentration Achieved [1]: No
concentration formulated [2]: 20000 µg/mL
SMILES: Cc1ccc(F)c(NC(=O)Nc2ccc(-c3cccc4[nH]nc(N)c34)cc2)c1 [Linifanib, N-[4-(3-Amino-1H-indazol-4-yl)phenyl]-N′-(2-fluoro-5-methylphenyl)urea]

viscosity ([3]; 2.2:1 molar ratio CAPTISOL): at least 5 centipoise
water content ([3]; 5:1 CAPTISOL): approximately 0.5 g/mL
solubility ([4]; aqueous solution with 0.1% polysorbate-20, aqueous with cosolvent or surfactant or cyclodextrin): 0.1 µg/mL
solubility in phosphate buffered saline ([4]; neutral pH): insoluble
SMILES: Cc1ccc(Nc2nccc(N(C)c3ccc4c(C)n(C)nc4c3)n2)cc1S(N)(=O)=O [Pazopanib, 5-[[4-[(2,3-dimethyl-2H-indazol-6-yl)methylamino]-2-pyrimidinyl]amino]-2-methylbenzenesulfonamide monohydrochloride]

SBE-β-CD [CAPTISOL] Formulations (CD Excess), concentration [1]: 30 mg/mL
Expected Concentration Achieved [1]: No
SMILES: CC1(C)CNc2cc(NC(=O)c3cccnc3NCc3ccncc3)ccc21 [Motesanib, N-(2,3-Dihydro-3,3-dimethyl-1H-indol-6-yl)-2-[(4-pyridinylmethyl)amino]-3-pyridinecarboxamide]

solubility ([4]; aqueous solution, pH 4.1, aqueous buffer, read-out: solubility): > 25000 µg/mL
solubility ([4]; aqueous solution, pH 7.4, aqueous buffer, read-out: solubility): 10 µg/mL
measured diffusion coefficient [5]: 3.3e-7 cm^2/s
times lower than the predicted single molecule diffusion coefficient [5]: 20 times
SMILES: CCN(CC)CCNC(=O)c1c(C)[nH]c(/C=C2\C(=O)Nc3ccc(F)cc32)c1C.O=C(O)CC(O)C(=O)O [Sunitinib, Butanedioic acid, hydroxy-, (2S)-, compound with N-[2-(diethylamino)ethyl]-5-[(Z)-(5-fluoro-1,2-dihydro-2-oxo-3H-indol-3-ylidine)methyl]-2,4-dimethyl-1H-pyrrole-3-carboxamide (1:1)]

solubility ([4]; PBS, aqueous buffer, read-out: solubility in PBS): 0.3 µg/mL (≈ 0.776 µM)
SMILES: CNC(=O)c1ccccc1Sc1ccc2c(/C=C/c3ccccn3)n[nH]c2c1 [Axitinib, N-Methyl-2-((3-((1E)-2-(pyridin-2-yl)ethenyl)-1H-indazol-6-yl)sulfanyl)benzamide]
